From article PMC10384562, “Synthesis and Structure Determination of Substituted Thiazole Derivatives as EGFR/BRAF^V600E Dual Inhibitors Endowed with Antiproliferative Activity” (Pharmaceuticals, 2023)

Assays:
BRAF^V600E = biological target: T1, BRAF^V600E (Mus musculus, UniProt P28028, V585E); test: BRAF^V600E inhibitory assay; format: biochemical; conditions: read-out: BRAF^V600E Inhibition IC50 ± SEM
T1 construct: Mouse full-length GST-tagged BRAFV600E (7.5 ng,; GST; purchased Invitrogen PV3849
Protocol: See Supplementary Information. […]
4.2.3. BRAFV600E inhibitory assay
V600E mutant BRAF kinase assay was performed to investigate the activity of tested compounds against BRAF. Mouse full-length GST-tagged BRAFV600E (7.5 ng, Invitrogen, PV3849) was pre-incubated with drug (1 µL) and assay dilution buffer (4 µL) for 60 min at 25 °C. In assay dilution buffer, a solution (5 µL) containing MgCl2 (30 mM), ATP (200 µM), recombinant human full length (200 ng) […] N-terminal His-tagged MEK1 (Invitrogen) was added to start the assay, subsequent to incubation for 25 min at 25 °C. The assay was stopped using 5X protein denaturing buffer (LDS) solution (5 µL). To further denature the protein, heat (70° C) was applied for 5 min. 4- […]
200 V). 10 µL of each reaction was loaded into the precast plates and electrophoresis was allowed to proceed. After completion of electrophoresis, the front part of the precast gel plate (holding hot ATP) was cut and afterwards cast-off. The dried gel was developed using a phosphor screen. A reaction without active enzyme was used as negative control while that containing no inhibitor served as positive control. […]
4.3. Statistical analysis
Computerized Prism 5 program was used to statistically analyzed data using one-way ANOVA test followed by Tukey’s as post ANOVA for multiple comparison at P ≤.05.
Data were presented as mean ± SEM.

[1] = test system: breast cancer (MCF-7) cell line; test: Antiproliferative assay, MCF-7; format: cell-based; conditions: Homo sapiens, MCF7; MCF-7 breast cancer cells; read-out: Antiproliferative Activity IC50 ± SEM, MCF-7
Protocol: (§1) 4.2.1.2. Assay for antiproliferative effect
(§2) To explore the antiproliferative potential of compounds propidium iodide fluorescence assay was performed using different cell lines such as Panc-1 (pancreas cancer cell line), MCF-7 (breast cancer cell line), HT-29 (colon cancer cell line) and A-549 (epithelial cancer cell line), respectively. To calculate the total nuclear DNA, a fluorescent dye (propidium iodide, PI) is used which can attach to the DNA, thus offering a quick and precise technique. PI cannot pass through the cell membrane and its signal intensity can be considered as directly proportional to quantity of cellular
(§3) DNA. Cells whose cell membranes are damaged or have changed permeability are counted as dead ones. The assay was performed by seeding the cells of different cell lines at a density of 3000-7500 cells/well (in200μl medium) in culture plates followed by incubation for 24h at 37 °C in humidified 5%CO2/95% air atmospheric conditions.
(§4) The medium was removed; the compounds were added to the plates at 10 μM concentrations (in 0.1% DMSO) in triplicates, followed by incubation for 48h. DMSO (0.1%) was used as control. After incubation, medium was removed followed by the addition of PI (25 μl, 50μg/mL in water/medium) to each well of the plates. At -80 °C, the plates were allowed to freeze for 24 h, followed by thawing at 25 °C. A fluorometer (Polar-Star BMG Tech) was used to record the readings at excitation and emission wavelengths of 530 and 620 nm for each well. The percentage cytotoxicity of compounds was calculated using the following formula:
(§5) Where ATC= Absorbance of treated cells and AC= Absorbance of control. Erlotinib was used as positive control in the assay.

[2] = test system: lung cancer (A-549) cell line; test: Antiproliferative assay, A-549; format: cell-based; conditions: Homo sapiens, A549; A-549 lung cancer cells; read-out: Antiproliferative Activity IC50 ± SEM, A-549
Protocol: as §1, §2, §3, §4, §5
(§6) (1 picture or pasted object on this page, not shown here)

[3] = test system: four human cancer cell lines (A-549, MCF-7, Panc-1, HT-29); test: Antiproliferative assay, average over four cancer cell lines (GI50); format: cell-based; conditions: for IC50: average IC50 (GI50) over A-549, MCF-7, Panc-1, HT-29; for fold less potent than compound 3f (GI50): ratio of GI50 to that of 3f
Protocol: as §1
To explore the antiproliferative potential of compounds propidium iodide fluorescence assay was performed using different cell lines such as Panc-1 (pancreas cancer cell […]
(epithelial cancer cell line), respectively. To calculate the total nuclear DNA, a fluorescent dye (propidium iodide, PI) is used which can attach to the DNA, thus offering a quick and precise technique. PI cannot pass through the cell membrane and its signal intensity can be considered as directly proportional to quantity of cellular
DNA. Cells whose cell membranes are damaged or have changed permeability are counted as dead ones. The assay was performed by seeding the cells of different cell lines at a density of 3000-7500 cells/well (in200μl medium) in culture plates followed […]
as §4
Where ATC= Absorbance of treated cells and AC= Absorbance of control. […]
was used as positive control in the assay.
as §6

[4] = test system: pancreatic cancer (Panc-1) cell line; test: Antiproliferative assay, Panc-1; format: cell-based; conditions: Homo sapiens; Panc-1 pancreatic cancer cells; read-out: Antiproliferative Activity IC50 ± SEM, Panc-1
Protocol: as §1, §2, §3, §4, §5

[5] = test system: colon cancer (HT-29) cell line; test: Antiproliferative assay, HT-29; format: cell-based; conditions: Homo sapiens; HT-29 colon cancer cells; read-out: Antiproliferative Activity IC50 ± SEM, HT-29
Protocol: as §1, §2, §3, §4, §5

[6] = Cell viability assay (MTT) on normal mammary epithelial cells; conditions: human, MCF-10A mammary gland epithelial cells
EGFR = biological target: T2, EGFR (Homo sapiens, UniProt P00533); test: EGFR-TK inhibitory assay; format: biochemical; conditions: for IC50: read-out: EGFR Inhibition IC50 ± SEM; for fold less potent than erlotinib (EGFR IC50): ratio of EGFR IC50 to that of erlotinib
T2 construct: CD, amino acids 645–1186); His6 (N); made in house; host or cells: Sf-9 insect cells (baculovirus; pBlueBacHis2B / pFASTBacHTc
Protocol: 4.2.2. EGFR inhibitory assay
Baculoviral expression vectors including pBlueBacHis2B and pFASTBacHTc were […]
5ʹ upstream to the EGFR sequence comprised a sequence that encoded (His)6. Sf-9 cells were infected for 72h for protein expression. The pellets of Sf-9 cells were solubilized in a buffer containing sodium vanadate (100 μM), aprotinin (10 μg/mL), triton (1%), HEPES buffer(50mM), ammonium molybdate (10 μM), benzamidine HCl (16 μg/mL), NaCl (10 mM),leupeptin (10 μg/mL) and pepstatin (10 μg/mL) at 0°C for 20 min at pH 7.4, followed by centrifugation for 20 min. To eliminate the nonspecifically bound material, a Ni-NTA super flow packed column was used to pass through and wash the crude extract supernatant first with 10mM and then with 100 mM imidazole. Histidine-linked proteins were first eluted with 250 and then with 500 mM imidazole subsequent to dialysis against NaCl (50 mM), HEPES (20 mM), glycerol (10%) and 1 μg/mL each of aprotinin, leupeptin and pepstatin for 120 min. The purification was performed either at 4 °C or on ice. To record autophosphorylation level, EGFR kinase assay was carried out on the basis of DELFIA/Time-Resolved Fluorometry. The compounds were first dissolved in DMSO […]
pH 7.4. Each compound (10 μL) was incubated with recombinant enzyme (10 μL, 5 ng for EGFR, 1:80 dilution in 100 mM HEPES) for 10 min at 25 °C, subsequent to the addition of 5X buffer (10 μL, containing 2 mM MnCl2, 100 μM Na3VO4, 20 mM HEPES and 1 mM DTT) and ATP-MgCl2 (20 μL, containing 0.1 mM ATP and 50 mM MgCl2) and incubation for 1h. The negative and positive controls were included in each plate by the incubation of enzyme either with or without ATP-MgCl2. The liquid was removed after incubation and the plates were washed thrice using wash buffer.
Europium-tagged antiphosphotyrosine antibody (75 μL, 400 ng) was added to each well followed by incubation of 1h and then washing of the plates using buffer. The enhancement solution was added to each well and the signal was recorded at excitation […]
The autophosphorylation percentage inhibition by compounds was calculated using the following equation: […]

in vitro = conditions: human

T1 sequence (P28028 whole entry V585E): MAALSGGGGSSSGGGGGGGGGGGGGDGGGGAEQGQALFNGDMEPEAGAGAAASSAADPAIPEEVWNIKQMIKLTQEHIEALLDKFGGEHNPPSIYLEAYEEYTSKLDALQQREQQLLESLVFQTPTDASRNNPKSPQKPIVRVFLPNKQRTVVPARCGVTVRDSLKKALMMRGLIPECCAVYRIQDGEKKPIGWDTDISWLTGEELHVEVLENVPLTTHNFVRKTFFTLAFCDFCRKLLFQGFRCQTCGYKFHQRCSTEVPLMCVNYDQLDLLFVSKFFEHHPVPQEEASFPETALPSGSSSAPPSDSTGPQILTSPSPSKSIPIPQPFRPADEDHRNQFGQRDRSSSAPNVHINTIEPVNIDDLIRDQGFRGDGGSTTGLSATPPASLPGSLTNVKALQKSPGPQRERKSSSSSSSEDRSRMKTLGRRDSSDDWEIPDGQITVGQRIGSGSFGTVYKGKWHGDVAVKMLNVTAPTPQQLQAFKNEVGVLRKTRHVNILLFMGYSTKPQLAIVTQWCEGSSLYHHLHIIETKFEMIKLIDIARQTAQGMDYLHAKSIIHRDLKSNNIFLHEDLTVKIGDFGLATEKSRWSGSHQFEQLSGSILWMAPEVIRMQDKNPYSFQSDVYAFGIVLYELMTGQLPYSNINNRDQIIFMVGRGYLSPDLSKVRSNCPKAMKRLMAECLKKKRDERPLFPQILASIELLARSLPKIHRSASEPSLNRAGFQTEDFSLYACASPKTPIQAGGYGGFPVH
T2 sequence (P00533 669-1210): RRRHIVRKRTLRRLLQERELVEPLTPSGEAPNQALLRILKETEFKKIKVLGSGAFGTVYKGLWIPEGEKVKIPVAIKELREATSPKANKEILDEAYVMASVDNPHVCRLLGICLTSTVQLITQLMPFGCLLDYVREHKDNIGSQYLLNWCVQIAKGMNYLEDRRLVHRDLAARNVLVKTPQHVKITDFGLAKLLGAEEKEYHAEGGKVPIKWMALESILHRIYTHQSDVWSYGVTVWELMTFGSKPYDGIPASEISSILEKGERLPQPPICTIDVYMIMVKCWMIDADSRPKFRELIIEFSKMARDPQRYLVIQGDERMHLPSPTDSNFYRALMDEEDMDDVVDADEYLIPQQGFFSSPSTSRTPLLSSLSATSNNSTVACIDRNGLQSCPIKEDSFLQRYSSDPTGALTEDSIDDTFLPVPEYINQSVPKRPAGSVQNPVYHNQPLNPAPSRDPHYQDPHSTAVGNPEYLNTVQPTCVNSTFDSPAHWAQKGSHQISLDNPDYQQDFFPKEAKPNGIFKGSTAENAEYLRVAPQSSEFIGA

Row | Structure (SMILES) | IC50 (BRAF^V600E) [nM] | IC50 [1] [nM] | melting point [°C] | IC50 [2] [nM] | IC50 ([3]; Homo sapiens) [nM] | IC50 [3] [nM] | IC50 [4] [nM] | IC50 [5] [nM] | viability at 96 h, 50 µM [6] [%] | IC50 (EGFR) [nM] | viability at 96 h, 50 µM (in vitro) [%] | fold less potent than compound 3f (GI50) [3] [fold] | fold less potent than erlotinib (EGFR IC50) (EGFR) [fold]
1 | C=CCn1c(C)cs/c1=N\Nc1ccc([N+](=O)[O-])cc1[N+](=O)[O-] [Compound 3c, (Z)-3-Allyl-2-(2-(2,4-Dinitrophenyl)Hydrazineylidene)-4-Methyl-2,3-Dihydrothiazole] | 126 ± 11 | 56 ± 5 | 197 to 198 | 50 ± 5 | > 50 | 54 | 54 ± 5 | 54 ± 5 | 90 | 98 ± 9 |  |  | 
2 | CCn1c(C)cs/c1=N\Nc1ccc([N+](=O)[O-])cc1[N+](=O)[O-] [Compound 3b, (Z)-2-(2-(2,4-Dinitrophenyl)Hydrazineylidene)-3-Ethyl-4-Methyl-2,3-Dihydrothiazole] |  | 82 ± 8 |  | 78 ± 7 | 80 |  | 80 ± 8 | 80 ± 8 |  |  | 91 | 2.2 | 
3 | Cc1cs/c(=N\Nc2ccc([N+](=O)[O-])cc2[N+](=O)[O-])n1-c1ccccc1 [Compound 3e, (Z)-2-(2-(2,4-Dinitrophenyl)Hydrazineylidene)-4-Methyl-3-Phenyl-2,3-Dihydrothiazole] |  | 74 ± 7 |  | 71 ± 7 | 72 |  | 72 ± 7 | 72 ± 7 |  |  | 87 | 2 | 
4 | C#Cc1cccc(Nc2ncnc3cc(OCCOC)c(OCCOC)cc23)c1 [Erlotinib, reference compound] |  | 40 ± 3 |  | 30 ± 3 |  |  | 30 ± 3 | 30 ± 3 |  |  |  |  | 
5 | Cc1ccc(S(=O)(=O)N/N=c2\scc(C)n2-c2ccccc2)cc1 [Compound 3g, (Z)-4-Methyl-N′-(4-Methyl-3-Phenylthiazol-2(3H)-Ylidene) Benzenesulfonohydrazide] |  | 63 ± 6 | 193 to 194 | 58 ± 5 | 60 |  | 60 ± 6 | 58 ± 5 | 90 |  |  |  | 
6 | Cc1cs/c(=N\Nc2ccc([N+](=O)[O-])cc2[N+](=O)[O-])n1Cc1ccccc1 [Compound 3a, (Z)-3-Benzyl-2-(2-(2,4-Dinitrophenyl)Hydrazineylidene)-4-Methyl-2,3-Dihydrothiazole] | 117 ± 10 | 49 ± 4 | 215 to 217 | 45 ± 4 | 48 |  | 48 ± 4 | 48 ± 4 | 89 | 93 ± 8 |  |  | 1.15
7 | Cc1cs/c(=N/Nc2ccc([N+](=O)[O-])cc2[N+](=O)[O-])n1C1CCCCC1 [Compound 3d, (Z)-3-Cyclohexyl-2-(2-(2,4-Dinitrophenyl)Hydrazineylidene)-4-Methyl-2,3-Dihydrothi-Azole] | 112 ± 10 | 47 ± 4 |  | 43 ± 4 | 46 |  | 46 ± 4 | 46 ± 4 | 92 | 91 ± 7 |  | 1.3 | 1.15
8 | C=CCn1c(C)cs/c1=N\NS(=O)(=O)c1ccc(C)cc1 [Compound 3h, (Z)-N′-(3-Allyl-4-Methylthiazol-2(3H)-Ylidene)-4-Methyl Benzenesulfonohydrazide] |  | 68 ± 6 | 236 to 238 | 63 ± 6 | 65 |  | 65 ± 6 | 65 ± 6 | 92 |  |  |  | 
9 | CCn1c(C)cs/c1=N\NS(=O)(=O)c1ccc(C)cc1 [Compound 3i, (Z)-N′-(3-Ethyl-4-Methylthiazol-2(3H)-Ylidene)-4-Methyl Benzenesulfonohydrazide] |  | 89 ± 8 | 236 to 238 | 84 ± 8 | 86 |  | 86 ± 8 | 86 ± 8 | 95 |  |  |  | 
